Like-named read-outs stand apart in the source and are kept apart here.
Tests used:
[1] = molecular target: DCN1 (DCUND1) protein PONY domain (Homo sapiens (Human), UniProt Q96GG9); assay: TR-FRET assay (binding to DCN-1, displacement of FAM-labeled probe)
Outline: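 Compounds read at 1, 5 and 24 h, 0.1% final DMSO, by TR-FRET between terbium-streptavidin on biotinylated DCN1 PONY domain (E. coli) and a FAM-tagged non-covalent inhibitor probe. Two setups used, 5 nM protein with 20 nM labelled probe, or 0.31 nM protein with 100 nM labelled plus 800 nM unlabelled probe; buffer had TritonX and 200 mM NaCl. % activity relative to high (with probe) and low (without probe) controls.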

DCN1 protein = DCN1 protein (Homo sapiens (Human), UniProt Q96GG9); assay: Intact protein MS analysis with the RapidFire-TOF system (covalent adduct formation); type: binding; conditions: 400 nM DCN1, incubated at room temperature for 3 hours
Chain of DCN1 protein (Q96GG9 whole entry): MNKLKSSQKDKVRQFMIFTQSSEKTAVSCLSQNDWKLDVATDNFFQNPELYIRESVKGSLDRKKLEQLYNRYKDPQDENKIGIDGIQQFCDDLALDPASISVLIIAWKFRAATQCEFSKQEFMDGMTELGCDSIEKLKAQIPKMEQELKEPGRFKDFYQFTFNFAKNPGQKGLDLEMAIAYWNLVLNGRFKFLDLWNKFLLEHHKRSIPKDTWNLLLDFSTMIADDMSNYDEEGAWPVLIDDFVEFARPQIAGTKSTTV
Method: (§1) DCN1 protein, His-TEV-DCN1, were expressed in E. Coli. The His-tagged protein was first purified with an Ni-NTA column. The His-tag was cleaved using His-tag TEV protease and the His-tags were removed using a second Ni-NTA column. Protein purity was verified with SDS-PAGE and intact MS. DCN1 was dissolved in a buffer containing 25 mM Tris-HCl, 200 mM NaCl, and 1 mM DTT at 400 nM. 11 concentrations of compounds were added to the DCN1 solution and incubated at room temperature for 3 hours, unless otherwise specified. The reaction plates were quenched by adding 0.2% formic acid. Quenched assay plates were analyzed with an Agilent RapidFire 360 system connected to an Agilent 6545 Q-TOF mass spectrometer equipped with an AJS source. 10 μL of sample volume was loaded onto a custom packed cartridge (4 μL, PLRP-S 30 μm/1000 Å pore; Optimize Technologies) with loading buffer (ddH2O with 0.09% (vol/vol) formic acid and 0.01% (vol/vol) trifluoroacetic acid; 1.25 ml/min) for 6 seconds before being eluted directly into the mass spectrometer in elution buffer (80% acetonitrile with 0.09% (vol/vol) formic acid and 0.01% (vol/vol) trifluoroacetic acid; 0.5 ml/min) for 7 seconds. The cartridge was re-equilibrated with loading buffer for 1 second before collection of the next sample. The Q-TOF was operated in TOF-only positive ionization mode set to the following parameters: Gas Temp=350 C, Drying Gas=7 l/min, Nebulizer=50 psi, Sheath Gas Temp=400 C, Sheath Gas Flow=12 l/min, VCap=4000 V, Nozzle Voltage=1000 V, Fragmentor=125 V, Skimmer=65 V and Oct 1 RF Vpp=750V. Raw MS data files were deconvoluted and analyzed using the Agilent MassHunter Bioconfirm software package to identify both parent protein and expected compound adduct mass signatures.
An MS assay was performed to evaluate the ability of the compounds to covalently modify DCN-1.
as §1, with “Vcap=4000” for “VCap=4000”

[2] = 24 hr after treatment with compound, read-out: TR FRET IC50 24 hr
[3] = TR FRET IC50 1 hr (nM), 1 hr after treatment with compound
[4] = read-out: TR FRET IC50 1 hr, 1 hr after treatment with compound

Chain of DCN1 (DCUND1) protein PONY domain (Q96GG9 60-248): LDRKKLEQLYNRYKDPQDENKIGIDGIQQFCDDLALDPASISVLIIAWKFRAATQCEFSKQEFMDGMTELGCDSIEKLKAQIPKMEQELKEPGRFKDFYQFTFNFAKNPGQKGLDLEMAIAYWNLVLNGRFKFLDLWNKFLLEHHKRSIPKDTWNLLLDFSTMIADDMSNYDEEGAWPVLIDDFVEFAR

Structure (SMILES) | Emax (DCN1 protein) [%] | also measured
CCN1C(=O)[C@H](NC(=O)c2cccc(C(F)(F)F)c2)[C@@H](c2cccc(NC(=O)C3=CCC3)c2)c2c(C)nn(-c3ccccc3)c21 (racemic) [Compound I-78, ˜{N}—[˜{rac}-(4˜{S},5˜{R})-4-[3-(cyclobutene-1-carbonylamino)phenyl]-7-ethyl-3-methyl-6-oxo-1-phenyl-4,5-dihydropyrazolo[3,4-b]pyridin-5-yl]-3-(trifluoromethyl)benzamide] | 80 to 100 | IC50 [1, 2]: 200 to 1000 nM; IC50 [1, 3]: 1000 to 3000 nM
C=C(CN1CCOCC1)C(=O)NCc1cccc([C@@H]2c3c(C)nn(-c4ccccc4)c3N(CC)C(=O)[C@H]2NC(=O)c2cccc(C(F)(F)F)c2)c1 [Compound I-215] | 80 to 100 | IC50 [1, 2]: ≤ 200 nM; IC50 [1, 4]: ≤ 200 nM
CCN1C(=O)[C@H](NC(=O)c2cccc(C(F)(F)F)c2)[C@@H](c2cccc(NC(=O)CC#N)c2)c2c(C)nn(-c3ccccc3)c21 (racemic) [Compound I-103] | 0 to 30 | IC50 [1, 2]: 1000 to 3000 nM; IC50 [1, 3]: 1000 to 3000 nM
C=C(CN1CCN(C2COC2)CC1)C(=O)NCc1cccc([C@@H]2c3cnn(-c4ccccc4)c3N(CC)C(=O)[C@H]2NC(=O)c2cccc(C(F)(F)F)c2)c1 [Compound I-4] | 80 to 100 | IC50 [1, 2]: ≤ 200 nM; IC50 [1, 4]: ≤ 200 nM
CCN1C(=O)[C@H](NC(=O)c2cccc(C(F)(F)F)c2)[C@@H](c2ccccc2NC(=O)[C@H](C)Cl)c2c(C)nn(-c3ccccc3)c21 (mixture of isomers) [Compound I-182] | – | % Adduct Formation (MS Emax) (DCN1 protein): + (MS Emax % adduct formation greater than or equal to 0.0 and less than or equal to 30.0)
CCN1C(=O)[C@H](NC(=O)c2cccc(C(F)(F)F)c2)[C@@H](c2ccccc2NC(=O)/C(C#N)=C/C2CC2)c2cnn(-c3ccccc3)c21 (racemic) [Compound I-179] | 80 to 100 | –
CCN1C(=O)[C@H](NC(=O)c2cccc(C(F)(F)F)c2)[C@@H](c2ccccc2NC(=O)/C=C/C(=O)OC)c2cnn(-c3ccccc3)c21 (racemic) [Compound I-167] | 80 to 100 | –
C#CC(=O)Nc1cccc([C@H]2c3c(C)nn(-c4ccccc4)c3N(CC)C(=O)[C@@H]2NC(=O)c2cccc(C(F)(F)F)c2)c1 (racemic) [Compound I-207] | 80 to 100 | –
CCN1C(=O)[C@H](NC(=O)c2cccc(C(F)(F)F)c2)[C@@H](c2ccccc2NC(=O)[C@@H](C)Cl)c2cnn(-c3ccccc3)c21 (mixture of isomers) [Compound I-185] | 0 to 30 | –
C/C=C/C(=O)Nc1ccccc1[C@H]1c2cnn(-c3ccccc3)c2N(CC)C(=O)[C@@H]1NC(=O)c1cccc(C(F)(F)F)c1 (racemic) [Compound I-189] | 0 to 30 | –
CCN1C(=O)[C@H](NC(=O)c2cccc(C(F)(F)F)c2)[C@@H](c2ccc(F)cc2NC(=O)CC#N)c2cnn(-c3ccccc3)c21 (racemic) [Compound I-187] | 0 to 30 | –
CCN1C(=O)[C@H](NC(=O)c2cccc(C(F)(F)F)c2)[C@@H](c2cccc(NC(=O)[C@H](C)Br)c2)c2c(C)nn(-c3ccccc3)c21 (mixture of isomers) [Compound I-180] | 80 to 100 | –
C#CC(=O)Nc1ccccc1[C@H]1c2cnn(-c3ccccc3)c2N(CC)C(=O)[C@@H]1NC(=O)c1cccc(C(F)(F)F)c1 (racemic) [Compound I-194] | 80 to 100 | –
CCN1C(=O)[C@@H](NC(=O)c2cccc(C(F)(F)F)c2)[C@H](c2ccccc2NC(=O)CCl)c2cnn(-c3ccccc3)c21 [Compound I-197, N-((4R,5S)-4-(2-(2-chloroacetamido)phenyl)-7-ethyl-6-oxo-1-phenyl-4,5,6,7-tetrahydro-1H-pyrazolo[3,4-b]pyridin-5-yl)-3-(trifluoromethyl)benzamide] | 80 to 100 | –
CCN1C(=O)[C@H](NC(=O)c2cccc(C(F)(F)F)c2)[C@@H](c2ccccc2NC(=O)C(F)Cl)c2cnn(-c3ccccc3)c21 (mixture of isomers) [Compound I-174] | 0 to 30 | –
C=C(C)C(=O)Nc1ccccc1[C@H]1c2c(C)nn(-c3ccccc3)c2N(CC)C(=O)[C@@H]1NC(=O)c1cccc(C(F)(F)F)c1 (racemic) [Compound I-165] | 0 to 30 | –
CCN1C(=O)[C@@H](NC(=O)c2cccc(C(F)(F)F)c2)[C@@H](c2cccc(NC(=O)C3=CCC3)c2)c2c(C)nn(-c3ccccc3)c21 [Compound I-202] | 0 to 30 | –
CCN1C(=O)[C@@H](NC(=O)c2cccc(C(F)(F)F)c2)[C@@H](c2cccc(NC(=O)/C=C/CN(C)C)c2)c2c(C)nn(-c3ccccc3)c21 (racemic) [Compound I-192] | 0 to 30 | –
C=CC(=O)Nc1ccccc1[C@H]1c2cnn(-c3ccccc3)c2N(CC)C(=O)[C@@H]1NC(=O)c1cccc(C(F)(F)F)c1 (racemic) [Compound I-190] | 30 to 80 | –
CC#CC(=O)Nc1cccc([C@H]2c3c(C)nn(-c4ccccc4)c3N(CC)C(=O)[C@@H]2NC(=O)c2cccc(C(F)(F)F)c2)c1 (racemic) [Compound I-193] | 30 to 80 | –
CCN1C(=O)[C@H](NC(=O)c2cccc(C(F)(F)F)c2)[C@@H](c2ccccc2NC(=O)/C=C/CN2CCOCC2)c2cnn(-c3ccccc3)c21 (racemic) [Compound I-176] | 0 to 30 | –
CCN1C(=O)[C@@H](NC(=O)c2cccc(C(F)(F)F)c2)[C@@H](c2cccc(NS(=O)(=O)CCl)c2)c2c(C)nn(-c3ccccc3)c21 (racemic) [Compound I-184] | 0 to 30 | –
CCN1C(=O)[C@H](NC(=O)c2cccc(C(F)(F)F)c2)[C@@H](c2ccccc2NC(=O)C(Cl)Cl)c2cnn(-c3ccccc3)c21 (racemic) [Compound I-198] | 0 to 30 | –
CCN1C(=O)[C@@H](NC(=O)c2cccc(C(F)(F)F)c2)[C@@H](c2cccc(NC(=O)COc3c(F)c(F)cc(F)c3F)c2)c2c(C)nn(-c3ccccc3)c21 (racemic) [Compound I-206] | 0 to 30 | –
CCN1C(=O)[C@@H](NC(=O)c2cccc(C(F)(F)F)c2)[C@@H](c2cccc(NC(=O)CCl)c2)c2c(C)nn(-c3ccccc3)c21 (racemic) [Compound I-203] | 0 to 30 | –
C=C(CN1CCOCC1)C(=O)Nc1cccc([C@H]2c3c(C)nn(-c4ccccc4)c3N(CC)C(=O)[C@H]2NC(=O)c2cccc(C(F)(F)F)c2)c1 (racemic) [Compound I-172] | – | % Adduct Formation (MS Emax) (DCN1 protein): + (MS Emax % adduct formation greater than or equal to 0.0 and less than or equal to 30.0)
CCN1C(=O)[C@H](NC(=O)c2cccc(C(F)(F)F)c2)[C@@H](c2ccccc2NC(=O)C2=CCC2)c2cnn(-c3ccccc3)c21 (racemic) [Compound I-195] | 0 to 30 | –
C=C(C)C(=O)Nc1cccc([C@H]2c3c(C)nn(-c4ccccc4)c3N(CC)C(=O)[C@@H]2NC(=O)c2cccc(C(F)(F)F)c2)c1 (racemic) [Compound I-201] | 0 to 30 | –
CCN1C(=O)[C@H](NC(=O)c2cccc(C(F)(F)F)c2)[C@@H](c2cccc(NS(=O)(=O)CCl)c2)c2c(C)nn(-c3ccccc3)c21 (racemic) [Compound I-209] | 0 to 30 | –

From patent US12435087B2, “Modulators of DCN-1 and methods of use thereof” (Cellarity, Inc., priority 2023, dated 2025)
